According to patent US20220257621A1, “CANCER CELL PROLIFERATION SUPPRESSION AGENT AND COMPOSITION FOR SUPPRESSING PROLIFERATION OF CANCER CELLS” (SHOWA DENKO K.K., priority 2019, published 2022):

Assays:
[1] = tested on: CYP1B1 gene; assay: Suppression of CYP1B1 gene expression induced by atmospheric dust (quantitative real-time PCR); assay type: cell-based, human; conditions: NHEK; sample 0.001% by mass 24 h, then atmospheric dust (NIST 1648a) 500 μg/mL 48 h; standardized to GAPDH; control without dust = 1; dust + water = 4.30
Protocol: (§1) The effect of the inositol derivative on suppressing the expression of a CYP1A1 gene and a CYP1B1 gene in normal human epidermal keratinocytes (NHEK, manufactured by KURABO INDUSTRIES LTD.) was measured under the following conditions.
(§2) The NHEK cells were seeded in a HuMedia KG2 medium manufactured by KURABO INDUSTRIES LTD. at the seeding density of 10000 cells/cm^2, and cultured for 24 hours under the conditions of 37° C. and 5% CO2. […] Using this cDNA as a template, the expression levels of the CYP1A1 gene and the CYP1B1 gene were quantitatively determined by quantitative real-time PCR using primers (QuantiTect Primer Assays, manufactured by QIAGEN) specific to the CYP1A1 gene and the CYP1B1 gene. As an internal standard gene, the expression level of a GAPDH gene, which is a housekeeping gene in which expression fluctuation due to the addition of atmospheric dust is not shown, was quantitatively determined (primer used: Perfect Real Time Primer, manufactured by Takara Bio Inc.), and the expression levels of the CYP1A1 gene and the CYP1B1 gene were standardized based on the expression level of GAPDH. […]

[2] = tested on: cell line derived from Lewis lung carcinoma (LLC); assay: Effect (1) of suppressing proliferation of cancer cells accelerated by atmospheric dust (WST-8); assay type: cell-based; conditions: sample 0.001% by mass 24 h, then atmospheric dust 500 μg/mL 48 h, WST-8 absorbance 450 nm relative to control without dust = 1, dust + water = 2.31
Protocol: The effect of the inositol derivative on suppressing the proliferation of cancer cells in a cell line derived from Lewis lung carcinoma (LLC, JCRB Cell Bank) was measured under the following conditions. The LLC cells were seeded at the seeding density of 50000 cells/cm^2 in a culture medium in which a Ham F 10 medium and an L15 medium (both manufactured by Sigma-Aldrich) were mixed at the ratio of 3:7 (volume ratio), and cultured for 24 hours under the conditions of 37° C. and 5% CO2. Next, an aqueous solution of the inositol derivative or an aqueous solution of myo-inositol was added to the culture medium so that the final concentration of the inositol derivative or myo-inositol was 0.001% by mass, or water (pure water) was added to the culture medium, and culturing was further performed for 24 hours. Thereafter, 0.1 mL of a DMSO solution of atmospheric dust (NIST 1648a) was added per 100 mL of the culture medium so that the final concentration of the atmospheric dust in the culture medium was 500 μg/mL, and culturing was further performed for 48 hours in the same conditions as above. Thereafter, the culture medium was replaced with a medium containing 10% (V/V) of WST-8 of Nacalai Tesque Inc., and after further culturing for 3 hours, the absorbance at the wavelength of 450 nm was measured with a microplate reader i-Control (manufactured by Tecan Group Ltd.). […]

[3] = tested on: ARNT gene; assay: Suppression of ARNT gene expression induced by atmospheric dust (quantitative real-time PCR); assay type: cell-based, human; conditions: NHEK; sample 0.001% by mass 24 h, then atmospheric dust (NIST 1648a) 500 μg/mL 48 h; standardized to GAPDH; control without dust = 1; dust + water = 1.74
Protocol: The effect of the inositol derivative on suppressing the expression of an ARNT gene in normal human epidermal keratinocytes (NHEK, manufactured by KURABO INDUSTRIES LTD.) was measured under the following conditions. The NHEK cells were seeded in a HuMedia KG2 medium manufactured by KURABO INDUSTRIES LTD. at the seeding density of 10000 cells/cm^2, and cultured for 24 hours under the conditions of 37° C. and 5% CO2. Next, an aqueous solution of the inositol derivative or an aqueous solution of myo-inositol was added to the culture medium so that the final concentration of the inositol derivative or myo-inositol was 0.001% by mass, or water (pure water) was added to the culture medium, and culturing was further performed for 24 hours. […] Using this cDNA as a template, the expression level of the ARNT gene was quantitatively determined by quantitative real-time PCR using a primer specific to the ARNT gene (Perfect Real Time Primer, manufactured by Takara Bio Inc.). As an internal standard gene, the expression level of GAPDH was quantitatively determined (primer used: Perfect Real Time Primer, manufactured by Takara Bio Inc.), and the expression level of the ARNT gene was standardized based on the expression level of GAPDH. […]

[4] = tested on: CYP1A1 gene; assay: Suppression of CYP1A1 gene expression induced by atmospheric dust (quantitative real-time PCR); assay type: cell-based, human; conditions: NHEK; sample 0.001% by mass 24 h, then atmospheric dust (NIST 1648a) 500 μg/mL 48 h; standardized to GAPDH; control without dust = 1; dust + water = 4.11
Protocol: as §1, §2

Relative gene expression level CYP1B1 [1]: 1.08 | Relative gene expression level CYP1A1 [4]: 3.10
SMILES: O[C@H]1[C@H](O)[C@@H](O)[C@H](O)[C@@H](O)[C@H]1O [myo-Inositol, myo-inositol]
Relative cell proliferation amount [2]: 2.03 | Relative gene expression level ARNT [3]: 1.85
